Measurements taken from patent publication US8987500B2, “4-biphenyl-substituted pyrazolidin-3,5-dione derivatives” (Bayer CropScience AG, priority 2003, dated 2015).

Each compound was assayed on larvae of the mustard beetle (Phaedon cochleariae) (assay: Phaedon test (spray treatment), Example E). Details: Table E, 500 g/ha active compound.
Assay type: in vivo
Procedure: (§1) Phaedon Test (Spray Treatment) [table] To produce a suitable preparation of active compound, 1 part by weight of active compound is mixed with the stated amounts of solvents and emulsifier, and the concentrate is diluted with emulsifier-containing water to the desired concentration. Discs of Chinese cabbage (Brassica pekinensis) are sprayed with a preparation of active compound of the desired concentration and, after they have dried, populated with larvae of the mustard beetle (Phaedon cochleariae). After the desired period of time, the activity in % is determined 100% means that all beetle larvae have been killed; 0% means that none of the beetle larvae have been killed.

Compound	Kill rate in % after 7d
Cc1ccc(-c2ccc(Cl)c(Cl)c2)cc1-c1c(OC(=O)C(C)(C)C)n2n(c1=O)CCCC2 [Ex. I-1-b-13]	100%
Cc1ccc(-c2cc(F)ccc2F)cc1-c1c(OC(=O)C(C)(C)C)n2n(c1=O)CCCC2 [Ex. I-1-b-16]	100%
Cc1ccc(-c2ccc(OC(F)(F)F)cc2)cc1-c1c(OC(=O)C(C)(C)C)n2n(c1=O)CCCC2 [Ex. I-1-b-27]	100%
CCOC(=O)Oc1c(-c2cc(-c3ccc(C)cc3)ccc2C)c(=O)n2n1CCCC2 [Ex. I-1-c-9]	100%
CCOC(=O)Oc1c(-c2cc(-c3cc(Cl)cc(Cl)c3)ccc2C)c(=O)n2n1CCCC2 [Ex. I-1-c-14]	100%
Cc1ccc(-c2ccc(F)c(Cl)c2)cc1-c1c(OC(=O)C(C)(C)C)n2n(c1=O)CCOCC2 [Ex. I-2-b-17]	100%
Cc1ccc(-c2cccc(C(F)(F)F)c2)cc1-c1c(OC(=O)C(C)(C)C)n2n(c1=O)CCOCC2 [Ex. I-2-b-19]	100%
Cc1cc(C)c(-c2c(OC(=O)C(C)(C)C)n3n(c2=O)CCOCC3)c(C)c1-c1ccc(F)cc1 [Ex. I-2-b-32]	100%
CCOC(=O)Oc1c(-c2cc(-c3ccccc3F)ccc2C)c(=O)n2n1CCOCC2 [Ex. I-2-c-4]	100%
CCOC(=O)Oc1c(-c2cc(-c3ccccc3C)ccc2C)c(=O)n2n1CCOCC2 [Ex. I-2-c-7]	100%
CCOC(=O)Oc1c(-c2cc(-c3ccc(C)cc3)ccc2C)c(=O)n2n1CCOCC2 [Ex. I-2-c-9]	100%
CCOC(=O)Oc1c(-c2cc(-c3ccc(Cl)cc3Cl)ccc2C)c(=O)n2n1CCOCC2 [Ex. I-2-c-11]	100%
CCOC(=O)Oc1c(-c2cc(-c3cc(Cl)ccc3Cl)ccc2C)c(=O)n2n1CCOCC2 [Ex. I-2-c-12]	100%
CCOC(=O)Oc1c(-c2cc(-c3cc(Cl)cc(Cl)c3)ccc2C)c(=O)n2n1CCOCC2 [Ex. I-2-c-14]	100%
CCOC(=O)Oc1c(-c2cc(-c3ccc(F)cc3F)ccc2C)c(=O)n2n1CCOCC2 [Ex. I-2-c-15]	100%
CCOC(=O)Oc1c(-c2cc(-c3ccc(F)c(Cl)c3)ccc2C)c(=O)n2n1CCOCC2 [Ex. I-2-c-17]	100%
CCOC(=O)Oc1c(-c2cc(-c3cccc(C(F)(F)F)c3)ccc2C)c(=O)n2n1CCOCC2 [Ex. I-2-c-19]	100%
Cc1ccc(-c2ccc(Cl)c(Cl)c2)cc1-c1c(O)n2n(c1=O)CCCC2 [Example I-1-a-13]	100%
Cc1ccc(-c2ccc(Cl)c(Cl)c2)cc1-c1c(O)n2n(c1=O)CCOCC2 [Example I-2-a-13]	100%
Cc1ccc(-c2cccc([N+](=O)[O-])c2)cc1-c1c(O)n2n(c1=O)CCOCC2 [Example I-2-a-26]	100%

Each compound was assayed on caterpillars of the army worm (Spodoptera frugiperda) (assay: Spodoptera frugiperda test (spray treatment), Example F). Details: maize leaf discs, 100 g/ha.
Assay type: in vivo
Procedure: as §1, with “Spodoptera frugiperda” for “Phaedon”, “maize leaves (Zea mays)” for “Chinese cabbage (Brassica pekinensis)”, “caterpillars” for “larvae”, “army worm (Spodoptera frugiperda).” for “mustard beetle (Phaedon cochleariae).”, “caterpillars” for “beetle larvae”

Compound	Kill rate in % after 7d
Cc1ccc(-c2ccc(Cl)cc2)cc1-c1c(OC(=O)C(C)C)n2n(c1=O)CCCC2 [Ex. I-1-b-32]	100%

Same assay, conditions: maize leaf discs, 500 g/ha

Compound	Kill rate in % after 7d
Cc1ccc(-c2ccc(F)cc2F)cc1-c1c(OC(=O)C(C)(C)C)n2n(c1=O)CCCC2 [Ex. I-1-b-15]	100%
CCOC(=O)Oc1c(-c2cc(-c3ccc(Cl)c(Cl)c3)ccc2C)c(=O)n2n1CCCC2 [Ex. I-1-c-13]	83%
CCOC(=O)Oc1c(-c2cc(-c3cccc(C(F)(F)F)c3)ccc2C)c(=O)n2n1CCCC2 [Ex. I-1-c-18]	100%
Cc1ccc(-c2cccc(Cl)c2)cc1-c1c(OC(=O)C(C)(C)C)n2n(c1=O)CCOCC2 [Ex. I-2-b-2]	100%
Cc1ccc(-c2ccc(Cl)cc2)cc1-c1c(OC(=O)C(C)(C)C)n2n(c1=O)CCOCC2 [Ex. I-2-b-3]	83%
Cc1ccc(-c2cccc(F)c2)cc1-c1c(OC(=O)C(C)(C)C)n2n(c1=O)CCOCC2 [Ex. I-2-b-5]	100%
Cc1ccc(-c2ccc(C(F)(F)F)cc2)cc1-c1c(OC(=O)C(C)(C)C)n2n(c1=O)CCOCC2 [Ex. I-2-b-20]	100%
CCOC(=O)Oc1c(-c2cc(-c3cccc(Cl)c3)ccc2C)c(=O)n2n1CCOCC2 [Ex. I-2-c-2]	83%
CCOC(=O)Oc1c(-c2cc(-c3ccc(Cl)cc3)ccc2C)c(=O)n2n1CCOCC2 [Ex. I-2-c-3]	100%
CCOC(=O)Oc1c(-c2cc(-c3cccc(F)c3)ccc2C)c(=O)n2n1CCOCC2 [Ex. I-2-c-5]	100%
CCOC(=O)Oc1c(-c2cc(-c3ccc(Cl)c(Cl)c3)ccc2C)c(=O)n2n1CCOCC2 [Ex. I-2-c-13]	100%
CCOC(=O)Oc1c(-c2cc(-c3ccc(C(F)(F)F)cc3)ccc2C)c(=O)n2n1CCOCC2 [Ex. I-2-c-20]	100%
Cc1ccc(-c2ccc(F)cc2)cc1-c1c(O)n2n(c1=O)CCOCC2 [Example I-2-a-6]	100%

Each compound was assayed on greenhouse red spider mite (Tetranychus urticae) (assay: Tetranychus test (OP-resistant/spray treatment), Example G). Details: Tetranychus urticae (OP-resistant), bean leaf discs, spray treatment, 100 g/ha.
Assay type: in vivo
Procedure: Tetranychus Test (OP-Resistant/Spray Treatment)
To produce a suitable preparation of active compound, 1 part by weight of active compound is mixed with the stated amounts of solvents and emulsifier, and the concentrate is diluted with emulsifier-containing water to the desired concentration.
Discs of bean leaves (Phaseolus vulgaris) which are infested by all stages of the greenhouse red spider mite (Tetranychus urticae) are sprayed with a preparation of active compound of the desired concentration.
After the desired period of time, the activity in % is determined 100% means that all spider mites have been killed; 0% means that none of the spider mites have been killed.

Compound	Kill rate in % after 5d
Cc1ccc(-c2ccc(F)cc2)cc1-c1c(OC(=O)C(C)(C)C)n2n(c1=O)CCOCC2 [Ex. I-2-b-6]	90%
CCOC(=O)Oc1c(-c2cc(-c3cccc([N+](=O)[O-])c3)ccc2C)c(=O)n2n1CCOCC2 [Ex. I-2-c-26]	90%

Same assay, conditions: Tetranychus urticae (OP-resistant), bean leaf discs, spray treatment, 500 g/ha

Compound	Kill rate in % after 5d
Cc1ccc(-c2ccc(C)c(-c3c(OC(=O)C(C)(C)C)n4n(c3=O)CCCC4)c2)cc1 [Ex. I-1-b-9]	100%
Cc1ccc(-c2cccc(Cl)c2Cl)cc1-c1c(OC(=O)C(C)(C)C)n2n(c1=O)CCCC2 [Ex. I-1-b-10]	90%
Cc1ccc(-c2ccc(Oc3ccccc3)cc2)cc1-c1c(OC(=O)C(C)(C)C)n2n(c1=O)CCCC2 [Ex. I-1-b-28]	100%
Cc1cc(C)c(-c2c(OC(=O)C(C)(C)C)n3n(c2=O)CCCC3)c(C)c1-c1ccc(F)cc1 [Ex. I-1-b-34]	90%
CCOC(=O)Oc1c(-c2cc(-c3ccccc3C)ccc2C)c(=O)n2n1CCCC2 [Ex. I-1-c-7]	100%
CCOC(=O)Oc1c(-c2cc(-c3ccc(Cl)cc3Cl)ccc2C)c(=O)n2n1CCCC2 [Ex. I-1-c-11]	100%
CCOC(=O)Oc1c(-c2cc(-c3cc(Cl)ccc3Cl)ccc2C)c(=O)n2n1CCCC2 [Ex. I-1-c-12]	100%
CCOC(=O)Oc1c(-c2cc(-c3cc(F)ccc3F)ccc2C)c(=O)n2n1CCCC2 [Ex. I-1-c-16]	100%
Cc1ccc(-c2cccc(Cl)c2Cl)cc1-c1c(OC(=O)C(C)(C)C)n2n(c1=O)CCOCC2 [Ex. I-2-b-10]	100%
CCOC(=O)Oc1c(-c2cc(-c3cccc(Cl)c3Cl)ccc2C)c(=O)n2n1CCOCC2 [Ex. I-2-c-10]	100%
CCOC(=O)Oc1c(-c2cc(-c3ccc(OC)cc3)ccc2C)c(=O)n2n1CCOCC2 [Ex. I-2-c-23]	100%
Cc1ccc(-c2cccc(Cl)c2Cl)cc1-c1c(O)n2n(c1=O)CCCC2 [Example I-1-a-10]	90%
Cc1ccc(-c2ccc(Cl)cc2Cl)cc1-c1c(O)n2n(c1=O)CCCC2 [Example I-1-a-11]	100%
Cc1ccc(-c2ccc(F)c(Cl)c2)cc1-c1c(O)n2n(c1=O)CCCC2 [Example I-1-a-17]	90%
Cc1ccc(-c2cccc(Cl)c2)cc1-c1c(O)n2n(c1=O)CCOCC2 [Example I-2-a-2]	90%
